The values below are quoted from earlier work in patent US20110029296A1, “Metabolic analysis apparatus and metabolic analysis method” (FUJITSU LIMITED, priority 2009, published 2011).

Each structure is given as a SMILES string.

The data set deals with CYP2E1 (Homo sapiens, UniProt P05181).
Sequence of CYP2E1 (P05181 whole entry, species assumed): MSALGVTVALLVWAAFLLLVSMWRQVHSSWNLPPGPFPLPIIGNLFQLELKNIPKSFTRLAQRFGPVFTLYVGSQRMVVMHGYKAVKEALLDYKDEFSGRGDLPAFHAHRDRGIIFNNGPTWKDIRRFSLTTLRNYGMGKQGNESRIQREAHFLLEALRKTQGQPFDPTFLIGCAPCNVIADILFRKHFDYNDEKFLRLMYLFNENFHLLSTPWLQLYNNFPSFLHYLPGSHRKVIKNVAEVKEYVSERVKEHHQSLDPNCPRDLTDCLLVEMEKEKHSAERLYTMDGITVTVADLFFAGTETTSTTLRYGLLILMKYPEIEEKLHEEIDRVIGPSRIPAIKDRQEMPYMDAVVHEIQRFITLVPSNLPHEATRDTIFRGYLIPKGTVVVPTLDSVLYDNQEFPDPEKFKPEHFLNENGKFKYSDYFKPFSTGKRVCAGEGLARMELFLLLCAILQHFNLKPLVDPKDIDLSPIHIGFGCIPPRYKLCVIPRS

As to `Nc1cc2c3ccccc3ccc2c2ccccc12` [6-aminochrysene], the “metabolism by CYP2E1” value (forms a complex with CYP2E1) is recorded as “not metabolized by CYP2E1”. The “effect on the metabolic reaction of CYP2E1” value (inhibition by the amino group) is recorded as “inhibitor which inhibits the metabolic reaction of CYP2E1”.
